Results reported in US8802596B2, “Multi-functional ionic liquid compositions for overcoming polymorphism and imparting improved properties for active pharmaceutical, biological, nutritional, and energetic ingredients” (Board of Trustees of the University of Alabama, priority 2005, dated 2014).
“Also recorded” adds a separate entry of the source.

Experiments:
[1] = Thermal stability (thermalgravimetric analysis, TGA); type: physicochemical; conditions: for Tonset / Tonset5%: TGA; for Tonset(5%) - onset temperature for 5% of the decomposition / Td - temperature of total decomposition / Tonset - onset temperature of the decomposition: Table 2, no unit in table (temperature is in ° C.)
[2] = test system: Candida albicans ATCC 10231; test: Microbiological activity test (dilution method), MIC and MBC; type: cell-based
Method: (§1) In the biological activity measurements (tests) following bacteria were used: Staphylococcus aureus ATCC 6538, Enterococcus faecium ATCC 49474, Escherichia coli ATCC 25922 and fungi Candida albicans ATCC 10231.
(§2) Microbiological activity tests were performed using dissolution method. Determinations were performed on liquid base (background): Mueller-Hinton for bacteria and Sabouraud for fungi. Starting solution had the concentration of 1 g/cm^3. From this solution, all other solutions (lower concentrations) were prepared. To those solutions, 0.1 cm^3 of the suspensions of standard microorganisms at a concentration of 10^6 cfu cm^3 were added. The samples with bacteria were incubated for 24 h at the temperature of 37° C., and with fungi there were incubated for 48 h at the temperature of 22° C. After incubation time the MIC, Minimal Inhibitory Concentration, minimal concentration of the investigated compound at which the growth of the microorganisms is stopped (visually), was specified (recorded) for every sample. To define the MBC, Minimal Bactericidal Concentration, additionally to each solution the 10^−6 cm^3 of the inactivator was added on the base (background) (0.3% lecithin, 3% polysorbate 80 and 0.1% L-cysteine). The samples with bacteria were incubated for 48 h in the temperature of 37° C. The fungi samples were incubated for 5 days at the temperature of 22° C. MBC values were defined (specified) as the concentration at which the level of the reduction of the microorganisms was not lower than 99.99%.

[3] = test system: Enterococcus faecium ATCC 49474; test: as above; type: cell-based
Method: as §1, §2

[4] = test system: Escherichia coli ATCC 25922; test: as above; type: cell-based
Method: as §1, §2

[5] = test system: Staphylococcus aureus ATCC 6538; test: as above; type: cell-based
Method: as §1, §2

[6] = test system: S. aureus, E. faecium, E. coli, C. albicans; test: Average value of MIC / MBC over the four cultures; type: cell-based; conditions: for MBC Average value / MIC Average value: average over S. aureus, E. faecium, E. coli, C. albicans; for Biological activity compared with the starting quaternary ammonium chloride (average MIC and MBC): in words, refers to Tables 3 and 4
Method: as §1, §2

[7] = background statement, in words; cited from earlier work
proteins in the body = conditions: cited from earlier work
[8] = in words
Swiss-Webster male mice = conditions: tail dipped 60 seconds in DMSO solution, 1 mM and 100 mM; 47.5° C. water bath; 15, 30, 60, 120 minutes; versus lidocaine hydrochloride
Method: The rat tail flick test is used to determine the local anesthetic ability of lidocaine docusate compared with lidocaine hydrochloride. The rat is immobilized in a restraining sock, so that the tail is only exposed. The tail is dipped into hot water and the number of times the rat flicks its tail is recorded. When the anesthetic is applied, the rat's tail should be numb therefore it will not feel the hot water and the number of tail flicks should decrease.
For this test Swiss-Webster male mice were used. They were habituated in a restraining sock 3 times during a 10 day period. A baseline tail flick was determined for each rat in 47.5° C. water bath. […] The number of tail flicks was determined at 15, 30, 60, and 120 minutes in the 47.5° C. water bath. […] Using the following equation, one can determine the % MPE at each time for the two compounds in question. % MPE=(TFi−BL)/(10−BL)*100 • TFi=latency to withdraw tail from hot water • BL=baseline withdrawal time without the drug

[9] = C. albicans, incubated 48 h at 22° C., Sabouraud
[10] = C. albicans, reduction not lower than 99.99%, 5 days at 22° C.
[11] = E. faecium, incubated 24 h at 37° C., Mueller-Hinton
[12] = E. faecium, reduction not lower than 99.99%, 48 h at 37° C.
[13] = E. coli, incubated 24 h at 37° C., Mueller-Hinton
[14] = E. coli, reduction not lower than 99.99%, 48 h at 37° C.
[15] = S. aureus, incubated 24 h at 37° C., Mueller-Hinton
[16] = S. aureus, reduction not lower than 99.99%, 48 h at 37° C.

## CCCCCCCCCCCCOC[N+](C)(C)CCOC(C)=O.O=C([O-])c1ccccc1 [(2-acetoxyethyl)dodecyloxymethyldimethylammonium Benzoate]
[1]
  Tonset: 122 °C

## CCCCCCCOC[N+](C)(C)CCOC(C)=O.O=C([O-])c1ccccc1 [(2-acetoxyethyl)heptyloxymethyldimethylammonium benzoate]
[1]
  Tonset: 120 °C

## CCCCCCCCCCCOC[N+](C)(C)CCO.O=C([O-])c1ccccc1 [(2-hydroxyethyl)dimethylundecyloxymethylammonium benzoate]
[1]
  Tonset: 127 °C

## CCCCCCCCCC[N+](C)(C)CCCCCCCCCC.[Cl-] [DDAC, didecyldimethylammonium chloride, reference compound]
[2]; Candida albicans, ATCC10231, 48 h
  MIC: 8 µg/mL
[2]; Candida albicans, ATCC10231, 120 h
  MBC: 16 µg/mL
[3]; Enterococcus faecium, ATCC49474, 24 h
  MIC: 4 µg/mL
[3]; Enterococcus faecium, ATCC49474, 48 h
  MBC: 31.2 µg/mL
[4]; Escherichia coli, ATCC25922, 24 h
  MIC: 8 µg/mL
[4]; Escherichia coli, ATCC25922, 48 h
  MBC: 31.2 µg/mL
[5]; Staphylococcus aureus, ATCC6538, 24 h
  MIC: 2 µg/mL
[5]; Staphylococcus aureus, ATCC6538, 48 h
  MBC: 31.2 µg/mL
[6]; read-out: MBC Average value
  MBC: 27.4 µg/mL
[6]; read-out: MIC Average value
  MIC: 5.5 µg/mL

## CCCCCCCCCC[N+](C)(C)CCCCCCCCCC.CCCCCCOC(=O)CC(C(=O)OCCCCCC)S(=O)(=O)O (stereo not drawn) [Didecyldimethylammonium Colawet MA-80]
[1]
  Tonset: 226 °C
  Tonset5%: 218 °C

## CCCCCCCCCC[N+](C)(C)CCCCCCCCCC.CCN1CCN(C(=O)NC(C(=O)NC2C(=O)N3C2SC(C)(C)C3C(=O)[O-])c2ccccc2)C(=O)C1=O (stereo not drawn) [Didecyldimethylammonium Piperacillin]
[1]
  Tonset: 205 °C
  Tonset5%: 181 °C

## CC([O-])=NS(=O)(=O)c1ccc(N)cc1.CCCCCCCCCC[N+](C)(C)CCCCCCCCCC [Didecyldimethylammonium Sulfacetamide, didecyldimethylammonium (DDA) sulfacetamide]
[1]
  Tonset: 200.2 °C
  Tonset5%: 183.3 °C

## CCCCCCCCCCCCCCCC[n+]1ccccc1.CCCCCCOC(=O)CC(C(=O)OCCCCCC)S(=O)(=O)[O-] (stereo not drawn) [Hexadecylpyridinium Colawet MA-80]
[1]
  Tonset: 262 °C
  Tonset5%: 248 °C

## CC(=O)NS(=O)(=O)c1ccc(N)cc1.CCCCCCCCCCCCCCCC[n+]1ccccc1 [Hexadecylpyridinium Sulfacetamide, hexadecylpyridinium sulfacetamide]
[1]
  Tonset: 219 °C
  Tonset5%: 211 °C

## CCC(C)n1ncn(-c2ccc(N3CCN(c4ccc(OCC5COC(Cn6cncn6)(c6ccc(Cl)cc6Cl)O5)cc4)CC3)cc2)c1=O (stereo not drawn) [Itraconazole, itraconazole]
[7]
  Solubility in organic solvents: slightly soluble in alcohol; also recorded: freely soluble in dichloromethane
  Solubility in water: insoluble in water
Proteins in the body
  Drug bound to proteins in the body: 99.8%

## CC1=CC(=O)[N-]S(=O)(=O)O1.CCCCCCCCCCCC[N+](C)(C)Cc1ccccc1 [[BA][Ace], benzalkonium acesulfamate]
[2]; [9]
  MIC: 16 ppm
[2]; [10]
  MBC: 31.2 ppm
[3]; [11]
  MIC: 8 ppm
[3]; [12]
  MBC: 31.2 ppm
[4]; [13]
  MIC: 31.2 ppm
[4]; [14]
  MBC: 125 ppm
[5]; [15]
  MIC: 4 ppm
[5]; [16]
  MBC: 31.2 ppm
[6]
  MBC Average value: 54.7 ppm
  MIC Average value: 14.8 ppm
  Biological activity compared with the starting quaternary ammonium chloride (average MIC and MBC): high activity of the salt, slightly lower than that of the starting benzalkonium chloride
[1]
  Tonset(5%) - onset temperature for 5% of the decomposition: 186

## CCCCCCCCCCCC[N+](C)(C)Cc1ccccc1.O=C1[N-]S(=O)(=O)c2ccccc21 [[BA][Sac], benzalkonium saccharinate]
[2]; [9]
  MIC: 16 ppm
[2]; [10]
  MBC: 31.2 ppm
[3]; [11]
  MIC: 8 ppm
[3]; [12]
  MBC: 16 ppm
[4]; [13]
  MIC: 16 ppm
[4]; [14]
  MBC: 62.5 ppm
[5]; [15]
  MIC: 4 ppm
[5]; [16]
  MBC: 31.2 ppm
[6]
  MBC Average value: 35.2 ppm
  MIC Average value: 11 ppm
[1]
  Td - temperature of total decomposition: 227
  Tonset - onset temperature of the decomposition: 206
  Tonset(5%) - onset temperature for 5% of the decomposition: 176

## CC1=CC([O-])=NS(=O)(=O)O1.CCCCCCCCCC[N+](C)(C)CCCCCCCCCC [[DDA][Ace], didecyldimethylammonium acesulfamate]
[2]; [9]
  MIC: 16 ppm
[2]; [10]
  MBC: 16 ppm
[3]; [11]
  MIC: 8 ppm
[3]; [12]
  MBC: 31.2 ppm
[4]; [13]
  MIC: 16 ppm
[4]; [14]
  MBC: 62.5 ppm
[5]; [15]
  MIC: 8 ppm
[5]; [16]
  MBC: 16 ppm
[6]
  MBC Average value: 31.4 ppm
  MIC Average value: 12 ppm
  Biological activity compared with the starting quaternary ammonium chloride (average MIC and MBC): only slight difference in the biological activity
[1]
  Td - temperature of total decomposition: 245
  Tonset - onset temperature of the decomposition: 201
  Tonset(5%) - onset temperature for 5% of the decomposition: 182

## CCCCCCCCCC[N+](C)(C)CCCCCCCCCC.O=C1[N-]S(=O)(=O)c2ccccc21 [[DDA][Sac], Didecyldimethylammonium Saccharinate]
[2]; [9]
  MIC: 16 ppm
[2]; [10]
  MBC: 16 ppm
[3]; [11]
  MIC: 8 ppm
[3]; [12]
  MBC: 16 ppm
[4]; [13]
  MIC: 16 ppm
[4]; [14]
  MBC: 16 ppm
[5]; [15]
  MIC: 4 ppm
[5]; [16]
  MBC: 62.5 ppm
[6]
  MBC Average value: 27.6 ppm
  MIC Average value: 11 ppm
  Biological activity compared with the starting quaternary ammonium chloride (average MIC and MBC): high in comparison with starting material
[1]
  Td - temperature of total decomposition: 221
  Tonset - onset temperature of the decomposition: 211
  Tonset(5%) - onset temperature for 5% of the decomposition: 184

## CCCCCCCCCC[N+](C)(C)CCCCCCCCCC.Cc1ccc(S(=O)(=O)[O-])cc1 [didecyldimethylammonium p-toluenesulfonate]
[8]
  Solubility / miscibility in water: insoluble in water and hexane
  Solubility in organic solvents / other media: soluble in chloroform, acetone, DMSO

## CCCCC(CC)COC(=O)CC(C(=O)OCC(CC)CCCC)S(=O)(=O)O.CCN(CC)CC(=O)Nc1c(C)cccc1C (stereo not drawn) [lidocaine docusate]
Swiss-Webster male mice
  Anesthetic ability (tail flick, % MPE graphs): higher and longer anesthetic ability than lidocaine hydrochloride

## didecyldimethylammonium N-[4-[[(2-amino-1,4-dihydro-4-oxo-6-pteridinyl)methyl]amino]benzoyl]-L-glutamate
[1]
  Tonset: 201 °C
  Tonset5%: 153 °C
